The text below walks through data of ChEMBL document CHEMBL1149405, “Cytotoxicity of novel derivatives of the spin trap EMPO” (2006).

Assay [1] concerns SW480. Nature of the assay: LDH release per cell after 24 h with 50 mM of compound in SW480 cell line. In kind it is functional, Homo sapiens. Background: Release of lactate dehydrogenase indicates damage to the cell membrane.
Assay [2] concerns SW480. Nature of the assay: Decrease in intracellular GSH levels at 50 mM expressed in […] cell line. The assay is classed as functional, Homo sapiens. The arrangement: scale not given: the % may be the effect or the level left.
Assay [3] deals with SW480. Nature of the assay: Decrease in cell number against human colon carcinoma SW480 cell line at 50 mM. The arrangement: scale not given: the % may be the effect or the level left. In kind it is functional.
Assay [4] concerns SW480. The assay is described as follows: Increase in intracellular GSH levels at 10mM expressed in […] cell line. The note with it: Homo sapiens. In kind it is functional, cell-based.
The subject of the next assay is SK-BR-3. The assay is described as follows: LDH release per cell after 24 h with 50 mM of compound in SKBr3 cell line. In kind it is functional, Homo sapiens.
Assay [5] has as its system SW480. The assay is described as follows: Decrease in cell number against human colon carcinoma SW480 cell line at 100 mM. In kind it is functional. The arrangement: scale not given: the % may be the effect or the level left.
The test system of another assay is F2000. Nature of the assay: LDH release per cell after 24 h with 50mM of compound F2000 fibroblasts. The assay is classed as functional, Homo sapiens.
Assay [6] deals with SW480. Nature of the assay: Increase in intracellular GSH levels at 50 mM expressed in […] cell line. The assay is classed as functional, cell-based. The note with it: Homo sapiens.

Active and inactive are the calls of the source. The rule behind the calls is not given here.

As for `CCCOC(=O)C1(C)CCC=[N+]1[O-]` (configuration not stated), the Activity with SW480 [1] was 91%; in the assay with SW480 [2] it was 38%; in the assay with SW480 [3], 10%; with SK-BR-3, 60%; with SW480 [5], less than 60%; in the assay on F2000, 105%. In addition, in the assay on SW480 [4], the outcome was Active.

On to `CCC(C)OC(=O)C1(C)CCC=[N+]1[O-]` (configuration not stated), for which the Activity in the assay with SW480 [1] is 1404%; in the assay on SW480 [2] it was 67%; in the assay with SW480 [3], 10%; with SK-BR-3, 101%; with SW480 [5], more than 90%; with F2000, 1211%.

Regarding `CC(C)OC(=O)C1(C)CCC=[N+]1[O-]` (configuration not stated), the Activity in the assay on SW480 [1] is given as 78%; in the assay with SW480 [3] it was 10%; with SK-BR-3 it was 54%; with SW480 [5], less than 60%; in the assay with F2000, 84%. For the same molecule, the outcome with SW480 [6] and in the assay on SW480 [4] was Active.

In the case of `CC(C)(C)OC(=O)C1(C)CCC=[N+]1[O-]` (configuration not stated), the Activity in the assay with SW480 [1] is 1280%; in the assay on SW480 [3] it was 10%; in the assay on SK-BR-3, 720%; with SW480 [5], more than 90%; in the assay on F2000, 670%.

`CCCCOC(=O)C1(C)CCC=[N+]1[O-]` (configuration not stated): the Activity with SW480 [3] is listed as 10%; in the assay on SW480 [5], more than 90%.
